Literature values as cited in patent US6384213B1, “Process for preparing a pure, pharmacopoeial grade amorphous form of cefuroxime axetil” (Ranbaxy Laboratories Limited, priority 1998, dated 2002).

Columns and labels:
[1] = amorphous form essentially free from crystalline material, purity at least 95%, compared with crystalline form
[2] = amorphous form essentially free from crystalline material, purity at least 95%

## CO/N=C(\C(=O)N[C@@H]1C(=O)N2C(C(=O)OC(C)OC(C)=O)=C(COC(N)=O)CS[C@H]12)c1ccco1 (some centres unmarked) [cefuroxime axetil in amorphous form, cefuroxime axetil]
[1]
  bioavailability: higher bioavailability than the crystalline form
[2]
  chemical stability: adequate chemical stability
